Assay results from US11278525B1, “Further molecules, compositions and methods for modulation of SIRT6” (SirTLab Corporation, priority 2017, dated 2022).

Biological target: SIRT6 (Homo sapiens, UniProt Q8N6T7)
Experiment: SIRT6 enzymatic activity assay with fluorophore (AMC)-labeled Lysin-myristoylated histone H3 peptide (de-myristoylation, trypsin release)
Type: biochemical
Design: six-histidine tag; made in house; host or cells: Escherichia coli BL21
Conditions: amount tested 20 uM; Example 5, Table 9
Procedure: Human recombinant SIRT6 (sequence identifier: CAG33481.1; GI:4814651) was expressed in large scale in Escherichia coli strain BL21 as a six-histidine-tagged protein, after transformation of the expression plasmid pET28-SIRT6. The SIRT6 enzyme was purified from the bacteria culture broth in a two-step strategy. The first purification step was carried out by cation exchange chromatography on a HiTrap CM-Sepharose column (GE Healthcare) using an FPLC system. The second purification step was performed by immobilized metal ion affinity chromatography (IMAC) using a cobalt affinity column (Clontech).
The enzymatic activity assay is carried out in 96 or 384-well microplates using the purified recombinant SIRT6 and a fluorophore-labeled peptide substrate: 7-amino-4-methylcoumarin (AMC) that is quenched through conjugation to the C-terminal end of a Lysin-myristoylated histone H3 peptide. The activity assay procedure requires two steps, both performed in the same microplate. In the first step, the substrate is incubated with the purified SIRT6 protein along with the co-substrate nicotinamide adenine dinucleotide (NAD+). Upon de-myristoylation, the liberated ε-amino group of the lysine becomes a trypsin substrate. Treatment with trypsin in the second step releases the fluorophore resulting in an increase in fluorescence. Fluorescence intensity is measured using a fluorescent plate reader (excitation and emission at 370 nm and 450 nm, respectively). The fluorescence signal is directly proportional to SIRT6 enzymatic activity.
In the primary screening, compounds from a library (ChemDiv Inc.) were tested at a single concentration of 20 micromolar for their potential to modulate SIRT6 enzymatic activity. The assay was carried out in 384-well black well plates and all liquid handling was done using a robotic liquid handler. Purified recombinant SIRT6 (1 micromolar) was pre-incubated with each compound (or DMSO in control wells) for 15 minutes at room temperature. The first stage of the assay was initiated by adding a ‘substrate solution’ containing the myristoylated histone H3 peptide and NAD+(for final concentrations of 25 micromolar and 20 micromolar, respectively). After one hour incubation at 37° C., a Trypsin solution (6 mg/mL) was added for 30 minutes at room temperature. Fluorescence intensity was measured using a fluorescent plate reader (Tecan) with excitation at 370 nm and emission at 450 nm. The effect of each tested compound was evaluated by the change in the fluorescence intensity compared to control wells. […] To validate the primary screening results, each of the primary “hits” was re-tested, first at concentration of 20 micromolar in duplicates and later at a serial dilution ranging from 100 to 0.2 micromolar in triplicates.
Results of Assay—The results of the assay are given below in Tables 1-3.
Additional molecules were tested according to the methods and materials of Example 1. The amount tested was 20 uM for each molecule.

SIRT6, sequence (Q8N6T7 whole entry): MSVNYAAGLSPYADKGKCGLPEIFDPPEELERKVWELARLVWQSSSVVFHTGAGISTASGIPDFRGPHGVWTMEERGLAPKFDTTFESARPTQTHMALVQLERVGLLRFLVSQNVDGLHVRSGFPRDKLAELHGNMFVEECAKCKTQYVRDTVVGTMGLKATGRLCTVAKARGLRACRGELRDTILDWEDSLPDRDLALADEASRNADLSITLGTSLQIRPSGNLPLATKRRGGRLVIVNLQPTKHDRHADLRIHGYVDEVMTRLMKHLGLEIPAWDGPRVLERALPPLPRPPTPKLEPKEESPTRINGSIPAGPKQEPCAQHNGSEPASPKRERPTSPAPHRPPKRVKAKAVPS

First: CCCCCCc1c(C)c2cc(C)c(OC(=O)c3cccc(OC)c3)cc2oc1=O [Y040-7591]
Second: CCOC(=O)CCc1c(C)c2ccc(OC(=O)c3cccc(OC)c3)c(C)c2oc1=O [Y041-1765]
The “% Activity” value of the first is lower: 63% for the first, 80% for the second.

Compared with `CCOc1cccc2sc(N(CCN(C)C)C(=O)CCS(=O)(=O)c3ccccc3)nc12` [E676-1270], `Cc1ccc2sc(N(CCCN(C)C)C(=O)CCS(=O)(=O)c3ccccc3)nc2c1C` [E677-2159] is higher in “% Activity” value: 61% for the first, 70% for the second.

First: CCOc1ccccc1C(=O)Oc1ccc2c3c(c(=O)oc2c1)CCCC3 [Y040-4190]
Second: COc1ccc(C(=O)Oc2ccc3c4c(c(=O)oc3c2)CCCC4)cc1 [Y040-8182]
The “% Activity” value of the first is lower: 168% for the first, 485% for the second.

First: COC(=O)COc1cccc2c1ccc1c3c(c(=O)oc12)CCCC3 [3532-0820]
Second: Cc1c(OC(=O)c2ccccc2)ccc2c3c(c(=O)oc12)CCC3 [4986-0081]
The “% Activity” value of the first is lower: 30% for the first, 41% for the second.

Compared with `Cc1cc(C)c2sc(N(CCCN(C)C)C(=O)CCS(=O)(=O)c3ccccc3)nc2c1` [E677-2413], `CN(C)CCCN(C(=O)CCS(=O)(=O)c1ccccc1)c1nc2ccc(F)cc2s1` [E677-0508] is lower in “% Activity” value: 115% for the first, 53% for the second.

Going from `Cc1c(Cc2ccccc2)c(=O)oc2cc(OC(=O)C3CCCCC3)ccc12` [Y040-7756] to `COc1ccc(C(=O)Oc2ccc3c(C)c(Cc4ccccc4)c(=O)oc3c2)cc1` [Y040-2026], the “% Activity” value rises from 61% to 140%.

Going from `CC(=O)Oc1ccc(C(=O)Nc2nc3c(C)cc(C)cc3s2)cc1` [3659-2007] to `COc1cc(OC)cc(C(=O)Nc2nc3c(cc4c5c(cccc53)CC4)s2)c1` [3343-0231], the “% Activity” value falls from 27% to 24%.

Going from `CN1CCC(NC(=O)C2CCN(c3nc4ccc(-c5ccccc5)nc4s3)CC2)CC1` [T387-0726] to `CCN1CCN(C(=O)C2CCN(c3nc4ccc(-c5ccccc5)nc4s3)CC2)CC1` [T387-0670], the “% Activity” value rises from 22% to 69%.

First: CCN(CC)CCN(C(=O)CCOc1ccccc1)c1nc2c(F)cc(F)cc2s1 [E676-5517]
Second: CN(C)CCCN(C(=O)CCOc1ccccc1)c1nc2ccc(Cl)cc2s1 [B677-0564]
The “% Activity” value of the first is higher: 38% for the first, 28% for the second.

Going from `O=C(CSc1nc2ncccc2n2cccc12)NCc1ccco1` [G117-0491] to `CCS(=O)(=O)c1nc2ccccc2n1CC(=O)Nc1ccccc1C(=O)OC` [7398-1618], the “% Activity” value rises from 88% to 156%.

First: COc1ccc(C(=O)Oc2ccc3c4c(c(=O)oc3c2)CCC4)cc1OC [2712-4069]
Second: COc1ccc(C(=O)Oc2ccc3c4c(c(=O)oc3c2)CCC4)cc1 [2712-3502]
The “% Activity” value of the first is higher: 294% for the first, 264% for the second.

First: CN(C)CCNC(=O)C1CCN(c2nc3ccc(-c4cccnc4)nc3s2)CC1 [T387-1019]
Second: CC1CCN(C(=O)C2CCN(c3nc4ccc(-c5ccncc5)nc4s3)CC2)CC1 [T387-1113]
The “% Activity” value of the first is lower: 31% for the first, 47% for the second.

Compared with `COC(=O)c1ccccc1NC(=O)Cn1c(S(=O)(=O)Cc2ccccc2)nc2ccccc21` [7398-1534], `O=C(c1ccccc1Br)N1C(=O)c2ccccc2S1(=O)=O` [8006-3826] is higher in “% Activity” value: 27% for the first, 56% for the second.

For `CCC(=O)Nc1nc2c(OC)cc(NC(=O)c3ccccc3OC)cc2s1` [F259-0462], the “% Activity” value was 117%.

Same assay, conditions: compound 20 uM; percentage of signal increase relative to control wells; Tables 1-2

First: CCOCCCNc1nc2ccccc2nc1S(=O)(=O)Cc1ccc(Cl)cc1 [L103-0696]
Second: CCCNc1nc2ccccc2nc1S(=O)(=O)Cc1ccc(Cl)cc1 [L103-0652]
The “% activity 20 uM” value of the first is higher: 91% for the first, 34% for the second.

Compared with `CCOC(=O)C1CCCN(S(=O)(=O)c2ccc(-c3ccc(N4CCOCC4)nn3)s2)C1` (centres unmarked) [K906-5001], `CN(C)C(=O)c1ccc(-c2ccc(N3CCCCC3)nc2)cc1` [M715-0112] is lower in “% activity 20 uM” value: 52% for the first, 40% for the second.

Going from `C=C1Cc2c(cccc2CC)C=C1c1csc(NC(=O)CCC(=O)NCCCN2CCC(C)CC2)n1` [K232-1782] to `CC(=O)Nc1ccc(-c2cc(C(=O)NCCN3CCN(C)CC3)c3cc(C)ccc3n2)cc1` [L036-2289], the “% activity 20 uM” value rises from 42% to 96%.

Compared with `CC(C)Cn1c(=O)c(-c2ccc(C(=O)N3CCN(c4ccccc4)CC3)cc2)nc2ccccc21` [M049-1557], `CCOc1ccc(NC(=O)c2sc3nc(C)nc(N(C)c4ccc(C(C)C)cc4)c3c2C)cc1` [K937-0320] is lower in “% activity 20 uM” value: 51% for the first, 32% for the second.

Compared with `Cc1nc(Cc2ccc(F)cc2)sc1C(=O)Nc1ccc(F)cc1F` [M830-6517], `C=C(Nc1cc(C)cc(C)c1)Nc1nnc(SCC2=CC(=C)N3C=C(C)C=CC3=N2)s1` [G755-0539] is lower in “% activity 20 uM” value: 36% for the first, 34% for the second.

Same assay, conditions: compound 100 uM; percentage of signal increase relative to control wells; Tables 1-2

Compared with `CCOCCCNc1nc2ccccc2nc1S(=O)(=O)Cc1ccc(Cl)cc1` [L103-0696], `CCCNc1nc2ccccc2nc1S(=O)(=O)Cc1ccc(Cl)cc1` [L103-0652] is lower in “% activity Max. conc. 100 uM” value: 159% for the first, 42% for the second.

First: CCOC(=O)C1CCCN(S(=O)(=O)c2ccc(-c3ccc(N4CCOCC4)nn3)s2)C1 (centres unmarked) [K906-5001]
Second: CCN1CCCC1CNC(=O)C1CCN(c2cc(C)nc3c(-c4ccc(Cl)cc4)c(C)nn23)CC1 (centres unmarked) [C535-0969]
The “% activity Max. conc. 100 uM” value of the first is higher: 52% for the first, 29% for the second.

Compared with `C=C1Cc2c(cccc2CC)C=C1c1csc(NC(=O)CCC(=O)NCCCN2CCC(C)CC2)n1` [K232-1782], `CC(=O)Nc1ccc(-c2cc(C(=O)NCCN3CCN(C)CC3)c3cc(C)ccc3n2)cc1` [L036-2289] is higher in “% activity Max. conc. 100 uM” value: 35% for the first, 119% for the second.

First: C=C1Oc2ccc(C)cc2-c2oc(NCCOC)c(-c3ccc(OCC)cc3)c21 [F025-0098]
Second: C=C1Cc2ccc(C)cc2C2=C1C(c1ccc(F)cc1)=C(NCCOC)C2 [F025-0094]
The “% activity Max. conc. 100 uM” value of the first is lower: 226% for the first, 246% for the second.

First: C=C(OC(C)CC)C1=C(C)NC2=C(C(=C)C(C(=C)OC)C(C)C2)C1c1ccc(N(CC)CC)cc1 (centres unmarked) [C142-0098]
Second: CCOc1ccc(NC(=O)c2sc3nc(C)nc(N(C)c4ccc(C(C)C)cc4)c3c2C)cc1 [K937-0320]
The “% activity Max. conc. 100 uM” value of the first is higher: 61% for the first, 54% for the second.

Going from `Cc1noc(-c2cccc(OC3CN(C(=O)c4cccc5[nH]ccc45)C3)c2)n1` [S051-0094] to `CC(C)Cn1c(=O)c(-c2ccc(C(=O)N3CCN(c4ccccc4)CC3)cc2)nc2ccccc21` [M049-1557], the “% activity Max. conc. 100 uM” value rises from 47% to 56%.

Going from `O=C(Nc1ccc2nncn2c1)c1cccc(Cl)c1` [M723-0069] to `C=S(=C)(c1cc(Cl)ccc1Cl)n1c(/C=C/c2ccc(SC)cc2)nc2ccccc21` [C381-0232], the “% activity Max. conc. 100 uM” value falls from 51% to 36%.

First: CCc1nnc(NC(=O)CSc2nc(N)nc(SC)c2C#N)s1 [8001-8196]
Second: C=C(Nc1cc(C)cc(C)c1)Nc1nnc(SCC2=CC(=C)N3C=C(C)C=CC3=N2)s1 [G755-0539]
The “% activity Max. conc. 100 uM” value of the first is lower: 25% for the first, 87% for the second.

Going from `Cc1nc(-c2cccc(C(F)(F)F)c2)c(N)c(N(C)C2CCN(C)CC2)n1` [V030-4109] to `C=C(C)C1Cc2cc(C(F)(F)F)ccc2N2CCCCC12` (centres unmarked) [V004-5575], the “% activity Max. conc. 100 uM” value falls from 255% to 175%.

First: CCCC1(CO)CCCN1C(=O)c1ccc2cc[nH]c2c1 (centres unmarked) [P933-1294]
Second: CN(C)C(=O)c1ccc(-c2ccc(N3CCCCC3)nc2)cc1 [M715-0112]
The “% activity Max. conc. 100 uM” value of the first is lower: 53% for the first, 54% for the second.

Going from `N#Cc1c(N)oc(C2=CC=CC2)c1-c1ccco1` [8014-9229] to `CC1=CC(C)(C)Nc2ccc(OC(=O)c3cccs3)cc21` [4477-2607], the “% activity Max. conc. 100 uM” value rises from 48% to 54%.

Going from `C=C1Nc2nc(OC(C)=O)c(C)c(C)c2S1` [8018-4551] to `Cc1nc(Cc2ccc(F)cc2)sc1C(=O)Nc1ccc(F)cc1F` [M830-6517], the “% activity Max. conc. 100 uM” value falls from 197% to 22%.

For `C=C(CS)Nc1ccc(CCCCC)cc1` [8008-0525], the “% activity Max. conc. 100 uM” value was 48%.
